Laboratory results taken from the NIST ThermoML archive (doi:10.1016/j.fluid.2017.06.024).

Assay: molar heat capacity at constant pressure
Settings: 100 kPa, Liquid, DSC

CC(C)OC(C)C [diisopropyl ether]
Settings	molar heat capacity at constant pressure [J/K/mol]
290.5 K	210.58
295.44 K	212.42
300.38 K	214.46
305.32 K	216.51
310.26 K	218.55
315.19 K	220.6
320.13 K	222.64
325.07 K	224.68
330.01 K	226.93
334.95 K	229.08
339.89 K	231.22
